According to ChEMBL document CHEMBL4304832, “Novel Pyrazole-Containing Compounds Active against Mycobacterium tuberculosis” (ACS Med Chem Lett, 2019):
≈ marks a conversion by molar mass, not a printed value.

What was measured:
[1] = Protection Index, ratio of CC50 for human HepG2 cells to MIC for Mycobacterium tuberculosis H37Rv; format: toxicity; conditions: read-out: PI
[2] = tested on: Mycobacterium tuberculosis; assay: Antitubercular activity against Mycobacterium tuberculosis H37Rv incubated for 6 days by resazurin dye based fluorescence assay; format: functional; conditions: 144 h
[3] = Cytotoxicity against human HepG2 cells incubated for 48 hrs by CellTiter Glo assay; format: cell-based

Question: Which selectivity ratio [1] does the source give for `COC1CCCN(Cc2cc(-c3ccc(C(C)C)cc3)n(-c3ccc(F)cc3)n2)C1` (configuration not stated) here?
Answer: 13

Question: What about the MIC [2] of the same compound?
Answer: 2.4 µM (≈ 0.978 µg/mL)

Question: And the CC50 at 48 h [3]?
Answer: 32 µM

Question: For `CC(C)c1ccc(-c2cc(CN3CCOCC3)nn2-c2ccc(F)cc2)cc1`, which selectivity ratio [1] is on record?
Answer: 10

Question: And the MIC [2]?
Answer: 5 µM (≈ 1.9 µg/mL)

Question: And the CC50 at 48 h [3]?
Answer: 50.1 µM

Question: Which results are given for `CC(C)c1ccc(-c2cc(CN3CCC(O)CC3)nn2-c2ccc(F)cc2)cc1`?
Answer: selectivity ratio [1]: 2; MIC [2]: 10 µM (≈ 3.94 µg/mL); CC50 at 48 h [3]: 20 µM

Question: With `Cc1cc(CN2CCOCC2)nn1C1CCCCC1` as the compound, how does the selectivity ratio [1] read?
Answer: 20

Question: What about the MIC [2] of the same compound?
Answer: 2.5 µM (≈ 0.658 µg/mL)

Question: And the CC50 at 48 h [3]?
Answer: 50 µM

Question: Which results are given for `CC(C)c1ccc(-c2cc(CN3CCN(C(=O)OC(C)(C)C)CC3)nn2C2CCCCC2)cc1`?
Answer: selectivity ratio [1]: 40; MIC [2]: 1 µM (≈ 0.467 µg/mL); CC50 at 48 h [3]: 40 µM

Question: Which selectivity ratio [1] does the source give for `Fc1ccc(-n2nc(CN3CCOCC3)cc2-c2ccc(C(F)(F)F)cc2)cc1` here?
Answer: 5

Question: What about the MIC [2] of the same compound?
Answer: 20 µM (≈ 8.11 µg/mL)

Question: And the CC50 at 48 h [3]?
Answer: 100 µM

Question: Which results are given for `CC(C)c1ccc(-c2cc(CN3CCC(O)CC3)nn2C2CCCCC2)cc1`?
Answer: selectivity ratio [1]: 1.5; MIC [2]: 42 µM (≈ 16 µg/mL); CC50 at 48 h [3]: 63 µM

Question: Which results are given for `COC1CCN(Cc2cc(-c3ccc(C(C)C)cc3)n(C3CCCCC3)n2)CC1`?
Answer: selectivity ratio [1]: 21; MIC [2]: 0.6 µM (≈ 0.237 µg/mL); CC50 at 48 h [3]: 12.6 µM

Question: For `CC(C)c1ccc(-c2cc(CN3CCCC(O)C3)nn2-c2ccc(F)cc2)cc1` (configuration not stated), which selectivity ratio [1] is on record?
Answer: 1.25

Question: What about the MIC [2] of the same compound?
Answer: 20 µM (≈ 7.87 µg/mL)

Question: What about the CC50 at 48 h [3] of the same compound?
Answer: 25.1 µM

Question: With `CC(C)c1ccc(-c2cc(CN3CCN(C)CC3)nn2C2CCCCC2)cc1` as the compound, how does the selectivity ratio [1] read?
Answer: 0.5

Question: And the MIC [2]?
Answer: 21 µM (≈ 7.99 µg/mL)

Question: And the CC50 at 48 h [3]?
Answer: 10 µM

Question: What does the source list for `CC(C)c1ccc(-c2cc(CN3CCOCC3)nn2C2CCCOC2)cc1` (configuration not stated)?
Answer: selectivity ratio [1]: > 50; MIC [2]: 2 µM (≈ 0.739 µg/mL); CC50 at 48 h [3]: > 100 µM

Question: Which selectivity ratio [1] does the source give for `Cc1c(CN2CCOCC2)nc(-c2ccc(C(C)C)cc2)n1-c1ccc(F)cc1` here?
Answer: 1.25

Question: What about the MIC [2] of the same compound?
Answer: 40 µM (≈ 15.7 µg/mL)

Question: And the CC50 at 48 h [3]?
Answer: 50.1 µM

Question: For `CC(C)c1ccc(-c2cc(CN3CCCC(O)C3)nn2C(C)C)cc1` (configuration not stated), which selectivity ratio [1] is on record?
Answer: 50

Question: And the MIC [2]?
Answer: 1 µM (≈ 0.341 µg/mL)

Question: And the CC50 at 48 h [3]?
Answer: 50 µM

Question: For `CC(C)c1ccc(-c2cc(CN3CCSCC3)nn2C2CCCCC2)cc1`, which selectivity ratio [1] is on record?
Answer: 31

Question: What about the MIC [2] of the same compound?
Answer: 1.3 µM (≈ 0.499 µg/mL)

Question: What about the CC50 at 48 h [3] of the same compound?
Answer: 40 µM

Question: Which selectivity ratio [1] does the source give for `COC1CCCN(Cc2cc(-c3ccc(C(C)C)cc3)n(C3CCCCC3)n2)C1` (configuration not stated) here?
Answer: 8

Question: And the MIC [2]?
Answer: 2.5 µM (≈ 0.989 µg/mL)

Question: And the CC50 at 48 h [3]?
Answer: 20 µM

Question: With `Cc1c(CN2CCOCC2)nn(-c2ccc(C(C)C)cc2)c1-c1ccc(F)cc1` as the compound, how does the selectivity ratio [1] read?
Answer: > 2

Question: And the MIC [2]?
Answer: 50 µM (≈ 19.7 µg/mL)

Question: And the CC50 at 48 h [3]?
Answer: > 100 µM

Question: For `CC(C)c1ccc(-c2cc(CN3CCOCC3)nn2C(C)C)cc1`, which selectivity ratio [1] is on record?
Answer: 45

Question: What about the MIC [2] of the same compound?
Answer: 1.75 µM (≈ 0.573 µg/mL)

Question: What about the CC50 at 48 h [3] of the same compound?
Answer: 79.4 µM

Question: Which selectivity ratio [1] does the source give for `COC1CCN(Cc2cc(C)n(C3CCCCC3)n2)CC1` here?
Answer: > 2

Question: And the MIC [2]?
Answer: 50 µM (≈ 14.6 µg/mL)

Question: What about the CC50 at 48 h [3] of the same compound?
Answer: > 100 µM

Question: Which results are given for `COC1CCN(Cc2cc(-c3ccc(C)nc3)n(C3CCCCC3)n2)CC1`?
Answer: selectivity ratio [1]: > 2; MIC [2]: 50 µM (≈ 18.4 µg/mL); CC50 at 48 h [3]: > 100 µM

Question: With `COC1CCN(Cc2nn(-c3ccc(C(C)C)cc3)c(-c3ccc(F)cc3)c2C)CC1` as the compound, how does the MIC [2] read?
Answer: 50 µM (≈ 21.1 µg/mL)

Question: For `Cc1ccc(-c2cc(CN3CCOCC3)nn2C2CCCCC2)cn1`, which selectivity ratio [1] is on record?
Answer: > 2

Question: And the MIC [2]?
Answer: 50 µM (≈ 17 µg/mL)

Question: And the CC50 at 48 h [3]?
Answer: > 100 µM

Question: With `CC(C)c1ccc(-c2cc(CN3CCNCC3)nn2C2CCCCC2)cc1` as the compound, how does the MIC [2] read?
Answer: 20 µM (≈ 7.33 µg/mL)

Question: For `Fc1ccc(-n2nc(CN3CCSCC3)cc2-c2ccc(C(F)(F)F)cc2)cc1`, which selectivity ratio [1] is on record?
Answer: 17

Question: And the MIC [2]?
Answer: 4.7 µM (≈ 1.98 µg/mL)

Question: And the CC50 at 48 h [3]?
Answer: 79.4 µM

Question: What does the source list for `COC1CCN(Cc2cc(-c3ccc(C(C)C)cc3)n(C3CCCOC3)n2)CC1` (configuration not stated)?
Answer: selectivity ratio [1]: 20; MIC [2]: 2.5 µM (≈ 0.994 µg/mL); CC50 at 48 h [3]: 50 µM

Question: With `CC(C)c1ccc(-c2cc(CN3CCN(C(=O)OC(C)(C)C)CC3)nn2-c2ccc(F)cc2)cc1` as the compound, how does the selectivity ratio [1] read?
Answer: 40

Question: What about the MIC [2] of the same compound?
Answer: 2 µM (≈ 0.957 µg/mL)

Question: And the CC50 at 48 h [3]?
Answer: 80 µM

Question: For `COC1CCN(Cc2nc(-c3ccc(C(C)C)cc3)n(-c3ccc(F)cc3)c2C)CC1`, which MIC [2] is on record?
Answer: 40 µM (≈ 16.9 µg/mL)

Question: What does the source list for `CC(C)c1ccc(-c2cc(CN3CCN(C)CC3)nn2-c2ccc(F)cc2)cc1`?
Answer: selectivity ratio [1]: 0.6; MIC [2]: 20 µM (≈ 7.85 µg/mL); CC50 at 48 h [3]: 12.6 µM

Question: For `COC1CCN(Cc2cc(-c3ccc(C(C)C)cc3)n(C(C)C)n2)CC1`, which MIC [2] is on record?
Answer: 50 µM (≈ 17.8 µg/mL)

Question: Which MIC [2] does the source give for `NNC(=O)c1ccncc1` [ISONIAZID] here?
Answer: 1.8 µM (≈ 0.247 µg/mL)
